# Results published in patent EP0408668B1 (MASSACHUSETTS INSTITUTE OF TECHNOLOGY, priority 1988, dated 1990).
# Key:
# [1] = tested on: brain levels of cytidine and cytidine-(5')-diphosphate-choline (CDP-choline); conditions: rats, cytidine 1 g/kg ip, sacrificed after 1 hour, vs placebo
# [2] = tested on: neuroblastoma/glioma cells (NG 108-15); experiment: Formation of tritiated CDP-choline from tritiated choline in neuroblastoma/glioma cells; assay type: cell-based; conditions: NG 108-15 cells, cytidine 25 µM, 90 minutes
# Text: CDP-choline is the immediate precursor for the phosphatidylcholine in membranes of neurons and other cells and its formation controls the production of phosphatidylcholine.
structure (smiles),measurement,setting,value
Nc1ccn([C@@H]2O[C@H](CO)[C@@H](O)[C@H]2O)c(=O)n1 [cytidine],brain CDP-choline levels rose by,[1],about 50%
same,newly-formed CDP-choline in cells incubated with supplemental cytidine vs without cytidine,[2],almost twice as much
